Source: patent US20150141380A1, “INHIBITORS OF ERK FOR DEVELOPMENTAL DISORDERS OF NEURONAL CONNECTIVITY” (CASE WESTERN RESERVE UNIVERSITY, priority 2010, published 2015)
“Also recorded” adds a separate entry of the source.

Assays:
[1] = tested on: FMRI knockout mice; assay: audiogenic seizure test in FMRI knockout mice (Example 2); assay type: in vivo
Procedure: Male FMRI knockout mice were bred at PsychoGenies and tested at 21 days old. All mice were acclimated to the environment, examined, handled, and weighed prior to initiation of the study to assure adequate health and suitability and to minimize non-specific stress associated with manipulation. During the course of the study, 12/12 light/dark cycles were maintained. The room temperature was maintained between 20 and 23° C. with a relative humidity maintained around 50%. Chow and water were provided ad libitum for the duration of the study. Each mouse was randomly assigned across treatment groups. The testing was performed during the animals' light cycle phase
The following compounds were used.
Mice were individually placed in a Plexiglas chamber and allowed to explore for 15 sec following which they were exposed to a 125 dB tone for 2 minutes, followed by 1 minute of no sound, and then a further 2 minute tone. The mice were scored based on their response, latency, and seizure intensity:
Data were analyzed by analysis of variance (ANOVA) followed by post-hoc comparisons with Fisher Tests when appropriate. An effect was considered significant if p<0.05. Data are presented as the mean±standard error of the mean.

[2] = tested on: fmr1 knockout mice; assay: audiogenic seizures in the fmr1 knockout transgenic mouse model of Fragile X syndrome (Example 1); assay type: in vivo
Procedure: Male fmr1 knockout mice were bred and tested at 21 days old. All mice were acclimated to the environment, examined, handled, and weighed prior to initiation of the study to assure adequate health and suitability and to minimize non-specific stress associated with manipulation. During the course of the study, 12/12 light/dark cycles were maintained. The room temperature was maintained between 20 and 23° C. with a relative humidity maintained around 50%. Chow and water were provided ad libitum for the duration of the study. Each mouse was randomly assigned across treatment groups. The testing was performed during the animals' light cycle phase. SL327 (Sigma Aldrich, 400 mg/kg) was dissolved in 5% Tween80 and saline and administered i.p. at a dose volume of 10 ml/kg 30 min prior to test. Mice were individually placed in a Plexiglas chamber and allowed to explore for 15 sec following which they were exposed to a 125 dB tone for 2 minutes, followed by 1 minute of no sound, and then a further 2 minute tone. The mice were scored based on their response, latency, and seizure intensity: […]

[3] = perillyl alcohol 25 mg/kg i.p., 60 min prior to testing
[4] = perillyl alcohol 50 mg/kg i.p., 60 min prior to testing
[5] = MPEP 30 mg/kg i.p., 30 min prior to testing

Question: For `C=C(C)[C@@H]1CC=C(CO)CC1` [perillyl alcohol, [(4S)-4-(prop-1-en-2-yl)cyclohex-1-en-1-yl]methanol], which “latency to onset of seizure compared to respective vehicle” value [1, 3] is on record?
Answer: significantly delayed the onset; also recorded: increased the latency to seizure

Question: And the “latency to respiratory arrest compared to respective vehicle” value [1, 3]?
Answer: significantly delayed the onset; also recorded: significantly prolonged the latency to respiratory arrest

Question: And the “mean seizure score compared to vehicle” value [1, 3]?
Answer: attenuated overall seizure score; also recorded: significantly decreased seizure score

Question: What about the “latency to onset of seizure compared to respective vehicle” value [1, 4] of the same compound?
Answer: significantly delayed the onset; also recorded: increased the latency to seizure

Question: And the “latency to respiratory arrest compared to respective vehicle” value [1, 4]?
Answer: significantly delayed the onset; also recorded: significantly prolonged the latency to respiratory arrest

Question: And the “mean seizure score compared to vehicle” value [1, 4]?
Answer: attenuated overall seizure score; also recorded: significantly decreased seizure score

Question: What does the source list for `Cc1cccc(C#Cc2ccccc2)n1.Cl` [MPEP]?
Answer: respiratory distress during testing ([1]; MPEP 30 mg/kg i.p.): no respiratory distress; latency to onset of seizure compared to respective vehicle [1, 5]: significantly delayed the onset; also recorded: increased the latency to seizure; latency to respiratory arrest compared to respective vehicle [1, 5]: significantly delayed the onset; also recorded: significantly prolonged the latency to respiratory arrest; mean seizure score compared to vehicle [1, 5]: attenuated overall seizure score; also recorded: significantly decreased seizure score; latency to respiratory arrest ([1]; MPEP 30 mg/kg i.p., 240 sec given to animals with no response): 240 s; clinical signs or toxicity during pretreatment or testing ([1]; i.p., MPEP HCI 30 mg/kg, perillyl alcohol 25 and 50 mg/kg): No clinical signs or toxicity were observed

Question: `N#C/C(=C(/N)Sc1ccc(N)cc1)c1ccccc1C(F)(F)F` [SL327, (2Z)-3-amino-3-[(4-aminophenyl)sulfanyl]-2-[2-(trifluoromethyl)phenyl]prop-2-enenitrile] was tested. Which “mean seizure score compared to vehicle” value ([2]; SL327 400 mg/kg i.p.) did it give?
Answer: significantly lower seizure score

Question: What about the survival ([2]; SL327 400 mg/kg i.p.) of the same compound?
Answer: All mice receiving SL327 survived

Question: What about the “survival rate following testing” value ([2]; SL327 400 mg/kg i.p.) of the same compound?
Answer: 100%

Question: And the audiogenic seizure activity ([2]; SL327 400 mg/kg i.p. 30 min prior to test, male fmr1 knockout mice, 21 days old, vs Tween80 vehicle, 400 mg/kg)?
Answer: absence of any audiogenic seizure activity; also recorded: completely inhibits all seizure activity; also recorded: seizure activity was completely prevented

Question: What about the latency to seizure onset ([2]; SL327 400 mg/kg i.p., 240 sec = maximum total time of audiogenic stimulation, given to animals with no response) of the same compound?
Answer: > 240 s

Question: What about the seizure score ([2]; SL327 400 mg/kg i.p., scale 0 (no response) to 5 (respiratory arrest)) of the same compound?
Answer: 0
